According to patent EP4610269A1, “UROKINASE PLASMINOGEN ACTIVATOR SURFACE RECEPTOR (UPAR) LIGANDS FOR DIAGNOSTIC OR THERAPEUTIC USE” (3B Pharmaceuticals GmbH, priority 2024, dated 2025):
*1 amine or outer side, *2 acyl side, *3 side chain or, on linkers, in order; H or OH if unused. Where a SMILES comes first, the peptide text is derived from it. Bridges are numbered along the chain shown (N, C = ends). [ ]: non-standard residue; d: D form. The star is where a group is joined. DOTA = O=C(O)CN1CCN(CC(=O)O)CCN(CC(=O)*)CCN(CC(=O)O)CC1; Phe(4-Cl) = N[C@@H](Cc1ccc(Cl)cc1)C(=O)O; Pro(cis-4-F) = O=C(O)[C@@H]1C[C@H](F)CN1; Hyp = O=C(O)[C@@H]1C[C@@H](O)CN1; hPhe = N[C@@H](CCc1ccccc1)C(=O)O; tBuAla = CC(C)(C)C[C@H](N)C(=O)O; αMeF = C[C@](N)(Cc1ccccc1)C(=O)O; Pentanoyl(4-Me) = CC(C)CCC(=O)*; Cha = N[C@@H](CC1CCCCC1)C(=O)O; Cit = NC(=O)NCCC[C@H](N)C(=O)O; Cysteamide = C(CS[*:3])N[*:1]; NMeL = CN[C@@H](CC(C)C)C(=O)O; Butoxycarbonyl = CCCCOC(=O)*; Chg = N[C@H](C(=O)O)C1CCCCC1; NMeV = CN[C@H](C(=O)O)C(C)C; Pip = O=C(O)[C@@H]1CCCCN1; Ac6c = NC1(C(=O)O)CCCCC1; Nva = CCC[C@H](N)C(=O)O; Hexanoyl = CCCCCC(=O)*; Pentanoyl = CCCCC(=O)*; Aib = CC(C)(N)C(=O)O; NEtG = CCNCC(=O)O

Assays:
[1] = biological target: T1, uPAR-expressing HEC-265 human endometrial adenocarcinoma cells (Homo sapiens, UniProt Q03405); test: Competitive FACS binding assay; conditions: pIC50 category of FACS binding
T1 construct: Cell surface uPAR-expressing HEC-265 human endometrial adenocarcinoma cells; host or cells: HEC-265
T1 sequence (Q03405 23-335): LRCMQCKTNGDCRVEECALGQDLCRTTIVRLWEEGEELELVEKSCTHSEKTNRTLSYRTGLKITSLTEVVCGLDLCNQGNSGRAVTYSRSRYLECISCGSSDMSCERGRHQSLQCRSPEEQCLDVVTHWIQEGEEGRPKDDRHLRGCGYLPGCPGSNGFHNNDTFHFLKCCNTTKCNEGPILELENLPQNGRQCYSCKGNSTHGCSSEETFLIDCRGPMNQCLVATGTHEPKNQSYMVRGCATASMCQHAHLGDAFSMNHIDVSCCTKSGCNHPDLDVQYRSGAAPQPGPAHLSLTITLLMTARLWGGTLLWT
Procedure, shortened: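 HEC-265 cells incubated 1 h at 4 °C with 10 nM biotinylated uPAR peptide tracer plus increasing test compound, then stained with APC-streptavidin on ice. Median APC fluorescence by flow cytometry; 4PL fit gives pIC50.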

human uPAR (uPAR-Fc) = biological target: T2, human uPAR (uPAR-Fc) (Homo sapiens, UniProt Q03405); test: Surface plasmon resonance (SPR) assay, single cycle kinetics; assay type: binding; conditions: pKD category for uPAR SPR activity assay; uPAR-Fc on Protein A-Chip, single cycle kinetics, 25°C; read-out: pKD CAT (converted)
T2 construct: comprising amino acids Leu23-Arg303 according to UniProt entry Q03405.1; purchased R&D Systems 10378-UK-100
T2 sequence (Q03405 23-303): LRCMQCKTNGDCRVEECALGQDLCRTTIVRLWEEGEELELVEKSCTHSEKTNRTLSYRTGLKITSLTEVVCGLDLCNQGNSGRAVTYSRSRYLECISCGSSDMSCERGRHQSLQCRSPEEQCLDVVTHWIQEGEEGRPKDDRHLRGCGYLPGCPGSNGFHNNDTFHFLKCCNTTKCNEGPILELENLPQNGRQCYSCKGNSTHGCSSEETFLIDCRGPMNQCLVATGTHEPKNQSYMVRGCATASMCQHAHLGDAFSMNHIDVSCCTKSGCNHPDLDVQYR
Procedure, shortened: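 uPAR-Fc (Leu23-Arg303 extracellular domains, human IgG1 Fc) captured on Protein A chip to ~2000 RU; single-cycle kinetics at 25°C in HEPES running buffer pH 7.4 with 0.1% DMSO. KD from double-referenced sensorgrams fitted to 1:1 Langmuir model, reported as pKD.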

IC50 [1]	Kd (human uPAR (uPAR-Fc))	Structure (SMILES)
≤ 10 nM	< 1.58 nM	CCCCC(=O)N[C@H]1CSSC[C@@H](C(N)=O)NC(=O)[C@H](CCC)NC(=O)[C@H](CCc2ccccc2)NC(=O)[C@@H]2C[C@@H](O)CN2C(=O)[C@@H]2CCCN2C(=O)[C@H](Cc2ccccc2)NC(=O)[C@H](Cc2ccc(O)cc2)NC(=O)[C@H](CCC(N)=O)NC(=O)[C@H](CCCNC(=N)N)NC1=O [UPAR-461, Pent-[Cys-Arg-Gln-Tyr-Phe-Pro-Hyp-Hfe-Nva-Cys]-NH2] (Pentanoyl-CRQYFP[Hyp][hPhe][Nva]C-NH2; disulfide 1-10)
39.8 to 100 nM	10 to 100 nM	CCNCC(=O)N[C@H]1CSSC[C@@H](C(N)=O)NC(=O)[C@H](CC(C)C)NC(=O)[C@H]([C@@H](C)CC)NC(=O)[C@@H](C)NC(=O)[C@@H]2CCCN2C(=O)[C@H](Cc2ccccc2)NC(=O)[C@H](Cc2ccc(O)cc2)NC(=O)[C@H](CCC(N)=O)NC(=O)[C@H](CCCNC(N)=O)NC1=O [UPAR-462, H-NEtg-[Cys-Cit-Gln-Tyr-Phe-Pro-ala-Ile-Leu-Cys]-NH2] (H-[NEtG]C[Cit]QYFP[dA]ILC-NH2; disulfide 2-11)
≤ 10 nM	< 1.58 nM	CCCCC(=O)N[C@H]1CSSC[C@@H](C(N)=O)NC(=O)[C@H](CCC)NC(=O)[C@H]([C@@H](C)CC)NC(=O)[C@@H](Cc2ccc(O)cc2)NC(=O)[C@@H]2CCCN2C(=O)[C@H](Cc2ccccc2)NC(=O)[C@H](Cc2ccc(O)cc2)NC(=O)[C@H](CCC(N)=O)NC(=O)[C@H](CCCNC(=N)N)NC1=O [UPAR-465, Pent-[Cys-Arg-Gln-Tyr-Phe-Pro-tyr-Ile-Nva-Cys]-NH2] (Pentanoyl-CRQYFP[dY]I[Nva]C-NH2; disulfide 1-10)
≥ 126 nM	10 to 100 nM	CC[C@H](C)[C@@H]1NC(=O)[C@@H](C)NC(=O)[C@@H]2CCCN2C(=O)[C@H](Cc2ccccc2)NC(=O)[C@H](Cc2ccc(O)cc2)NC(=O)[C@H](CCC(N)=O)NC(=O)[C@@H](CCCNC(=N)N)NC(=O)[C@@H](NC(=O)CCC(C)C)CSSC[C@@H](C(N)=O)NC(=O)[C@H](CC(C)C)NC1=O [UPAR-467, iHex-[Cys-arg-Gln-Tyr-Phe-Pro-ala-Ile-Leu-Cys]-NH2] ({Pentanoyl(4-Me)}-C[dR]QYFP[dA]ILC-NH2; disulfide 1-10)
≤ 10 nM	1.58 to 10 nM	CC[C@H](C)[C@@H]1NC(=O)[C@@H](C)NC(=O)[C@@H]2CCCN2C(=O)[C@H](Cc2ccccc2)NC(=O)[C@H](Cc2ccc(O)cc2)NC(=O)[C@H](CCC(N)=O)NC(=O)C(C)(C)NC(=O)[C@@H](NC(=O)CCC(C)C)CSSC[C@@H](C(N)=O)NC(=O)[C@H](CC(C)C)NC1=O [UPAR-468, iHex-[Cys-Aib-Gln-Tyr-Phe-Pro-ala-Ile-Leu-Cys]-NH2] ({Pentanoyl(4-Me)}-C[Aib]QYFP[dA]ILC-NH2; disulfide 1-10)
12.6 to 31.6 nM	1.58 to 10 nM	CC[C@H](C)[C@@H]1NC(=O)[C@@H]2CCCCN2C(=O)[C@@H]2CCCN2C(=O)[C@H](Cc2ccccc2)NC(=O)[C@H](Cc2ccc(O)cc2)NC(=O)[C@H](CCC(N)=O)NC(=O)[C@H](CCCNC(N)=O)NC(=O)[C@@H](NC(=O)CCC(C)C)CSSC[C@@H](C(N)=O)NC(=O)[C@H](CC(C)C)NC1=O [UPAR-469, iHex-[Cys-Cit-Gln-Tyr-Phe-Pro-Pip-Ile-Leu-Cys]-NH2] ({Pentanoyl(4-Me)}-C[Cit]QYFP[Pip]ILC-NH2; disulfide 1-10)
≥ 126 nM	> 100 nM	CCCCC(=O)N[C@H]1CSSC[C@@H](C(N)=O)NC(=O)[C@H](CCC)NC(=O)[C@H]([C@@H](C)CC)NC(=O)[C@@H]2C[C@@H](O)CN2C(=O)[C@H](C(C)C)N(C)C(=O)[C@H](Cc2ccccc2)NC(=O)[C@H](Cc2ccc(O)cc2)NC(=O)[C@H](CCC(N)=O)NC(=O)[C@H](CCCNC(=N)N)NC1=O [UPAR-470, Pent-[Cys-Arg-Gln-Tyr-Phe-Nmv-Hyp-Ile-Nva-Cys]-NH2] (Pentanoyl-CRQYF[NMeV][Hyp]I[Nva]C-NH2; disulfide 1-10)
≤ 10 nM	< 1.58 nM	CCCCC(=O)N[C@H]1CSSC[C@@H](C(N)=O)NC(=O)[C@H](CCC)NC(=O)[C@H]([C@@H](C)CC)NC(=O)[C@@H]2C[C@@H](O)CN2C(=O)[C@@H]2CCCN2C(=O)[C@H](Cc2ccccc2)NC(=O)[C@H](Cc2ccc(O)cc2)NC(=O)[C@H](CCCCNC(=O)CN2CCN(CC(=O)O)CCN(CC(=O)O)CCN(CC(=O)O)CC2)NC(=O)[C@H](CCC(=O)O)NC1=O [UPAR-471, Pent-[Cys-Glu-Lys(DOTA)-Tyr-Phe-Pro-Hyp-Ile-Nva-Cys]-NH2] (Pentanoyl-CEK(DOTA)YFP[Hyp]I[Nva]C-NH2; disulfide 1-10)
≤ 10 nM	< 1.58 nM	CCCCC(=O)N[C@H]1CSSC[C@@H](C(N)=O)NC(=O)[C@H](CCC)NC(=O)[C@H]([C@@H](C)CC)NC(=O)[C@@H]2CCCN2C(=O)[C@@H]2CCCN2C(=O)[C@H](Cc2ccccc2)NC(=O)[C@H](Cc2ccc(O)cc2)NC(=O)[C@H](CCCCNC(=O)CN2CCN(CC(=O)O)CCN(CC(=O)O)CCN(CC(=O)O)CC2)NC(=O)[C@H](CCCNC(N)=O)NC1=O [UPAR-473, Pent-[Cys-Cit-Lys(DOTA)-Tyr-Phe-Pro-Pro-Ile-Nva-Cys]-NH2] (Pentanoyl-C[Cit]K(DOTA)YFPPI[Nva]C-NH2; disulfide 1-10)
≥ 126 nM	> 100 nM	CC[C@H](C)[C@@H]1NC(=O)[C@@H](C)NC(=O)[C@@H]2CCCN2C(=O)[C@H](Cc2ccccc2)NC(=O)[C@H](Cc2ccc(O)cc2)NC(=O)[C@H](CCC(N)=O)NC(=O)[C@H](CCCNC(N)=O)NC(=O)[C@@H](NC(=O)CCC(C)C)CSSC[C@@H](C(N)=O)NC(=O)[C@H](CC2CCCCC2)NC1=O [UPAR-474, iHex-[Cys-Cit-Gln-Tyr-Phe-Pro-ala-Ile-Cha-Cys]-NH2] ({Pentanoyl(4-Me)}-C[Cit]QYFP[dA]I[Cha]C-NH2; disulfide 1-10)
≤ 10 nM	< 1.58 nM	CCCCCC(=O)N[C@H]1CSSC[C@@H](C(N)=O)NC(=O)[C@H](CC(C)C)NC(=O)[C@H]([C@@H](C)CC)NC(=O)[C@@H](C)NC(=O)[C@@H]2CCCN2C(=O)[C@H](Cc2ccccc2)NC(=O)[C@H](Cc2ccc(O)cc2)NC(=O)[C@H](CCC(N)=O)NC(=O)[C@H](CCCNC(N)=O)NC1=O [UPAR-475, Hex-[Cys-Cit-Gln-Tyr-Phe-Pro-ala-Ile-Leu-Cys]-NH2] (Hexanoyl-C[Cit]QYFP[dA]ILC-NH2; disulfide 1-10)
39.8 to 100 nM	10 to 100 nM	CC[C@H](C)[C@@H]1NC(=O)[C@@H](C)NC(=O)[C@@H]2CCCN2C(=O)[C@H](Cc2ccccc2)NC(=O)[C@H](Cc2ccc(O)cc2)NC(=O)[C@H](CCC(N)=O)NC(=O)[C@H](CCCNC(N)=O)NC(=O)[C@@H](NC(=O)CCC(C)C)CSSC[C@@H](C(N)=O)NC(=O)[C@H](CC(C)(C)C)NC1=O [UPAR-477, iHex-[Cys-Cit-Gln-Tyr-Phe-Pro-ala-Ile-Npg-Cys]-NH2] ({Pentanoyl(4-Me)}-C[Cit]QYFP[dA]I[tBuAla]C-NH2; disulfide 1-10)
39.8 to 100 nM	10 to 100 nM	CCCCC(=O)N[C@H]1CSSC[C@@H](C(N)=O)NC(=O)[C@H](CCC)NC(=O)[C@H]([C@@H](C)CC)NC(=O)[C@@H]2C[C@@H](O)CN2C(=O)[C@@H]2CCCN2C(=O)[C@H](Cc2ccccc2)NC(=O)[C@](C)(Cc2ccccc2)NC(=O)[C@H](CCC(N)=O)NC(=O)[C@H](CCCNC(=N)N)NC1=O [UPAR-478, Pent-[Cys-Arg-Gln-Amf-Phe-Pro-Hyp-Ile-Nva-Cys]-NH2] (Pentanoyl-CRQ[αMeF]FP[Hyp]I[Nva]C-NH2; disulfide 1-10)
≥ 126 nM	> 100 nM	CCCCC(=O)N[C@H]1CSSC[C@@H](C(N)=O)NC(=O)[C@H](CC(C)C)N(C)C(=O)[C@H]([C@@H](C)CC)NC(=O)[C@@H]2C[C@@H](O)CN2C(=O)[C@@H]2CCCN2C(=O)[C@H](Cc2ccccc2)NC(=O)[C@H](Cc2ccc(O)cc2)NC(=O)[C@H](CCC(N)=O)NC(=O)[C@H](CCCNC(=N)N)NC1=O [UPAR-480, Pent-[Cys-Arg-Gln-Tyr-Phe-Pro-Hyp-Ile-Nml-Cys]-NH2] (Pentanoyl-CRQYFP[Hyp]I[NMeL]C-NH2; disulfide 1-10)
≤ 10 nM	< 1.58 nM	CCCCC(=O)N[C@H]1CSSCCNC(=O)[C@H](CCC)NC(=O)[C@H]([C@@H](C)CC)NC(=O)[C@@H]2C[C@@H](O)CN2C(=O)[C@@H]2CCCN2C(=O)[C@H](Cc2ccccc2)NC(=O)[C@H](Cc2ccc(O)cc2)NC(=O)[C@H](CCC(N)=O)NC(=O)[C@H](CCCNC(=N)N)NC1=O [UPAR-481, Pent-[Cys-Arg-Gln-Tyr-Phe-Pro-Hyp-Ile-Nva-AET]] (Pentanoyl-CRQYFP[Hyp]I[Nva]-Cysteamide; disulfide 1-C)
≤ 10 nM	< 1.58 nM	CCC[C@@H]1NC(=O)[C@H]([C@@H](C)CC)NC(=O)[C@@H]2C[C@@H](O)CN2C(=O)[C@@H]2CCCN2C(=O)[C@H](Cc2ccccc2)NC(=O)[C@H](Cc2ccc(O)cc2)NC(=O)[C@H](CCC(N)=O)NC(=O)[C@H](CCCNC(=N)N)NC(=O)[C@@H](NC(=O)C2(NC(C)=O)CCCCC2)CSSC[C@@H](C(N)=O)NC1=O [UPAR-482, Ac-Egz-[Cys-Arg-Gln-Tyr-Phe-Pro-Hyp-Ile-Nva-Cys]-NH2] (Ac-[Ac6c]CRQYFP[Hyp]I[Nva]C-NH2; disulfide 2-11)

Structure (SMILES)	IC50 [1]	Kd (human uPAR (uPAR-Fc))
CCCCOC(=O)N[C@H]1CSSC[C@@H](C(N)=O)NC(=O)[C@H](CCC)NC(=O)[C@H](C2CCCCC2)NC(=O)[C@@H]2C[C@@H](O)CN2C(=O)[C@@H]2C[C@H](F)CN2C(=O)[C@H](Cc2ccc(Cl)cc2)NC(=O)[C@H](Cc2ccc(O)cc2)NC(=O)[C@H](CCCCNC(=O)CN2CCN(CC(=O)O)CCN(CC(=O)O)CCN(CC(=O)O)CC2)NC(=O)[C@H](CCCNC(N)=O)NC1=O [UPAR-476, Butoc-[Cys-Cit-Lys(DOTA)-Tyr-Pcf-4Cfp-Hyp-Chg-Nva-Cys]-NH2] (Butoxycarbonyl-C[Cit]K(DOTA)Y[Phe(4-Cl)][Pro(cis-4-F)][Hyp][Chg][Nva]C-NH2; disulfide 1-10)	≤ 10 nM	< 1.58 nM
